Source: ChEMBL document CHEMBL2074494 (Biopharm Drug Dispos, 2004)

Molecular target: ATP-dependent translocase ABCB1 (Homo sapiens, UniProt P08183)
Test: TP_TRANSPORTER: transepithelial transport in Caco-2 cells
Type: functional, cell-based

Sequence of ATP-dependent translocase ABCB1 (P08183 whole entry): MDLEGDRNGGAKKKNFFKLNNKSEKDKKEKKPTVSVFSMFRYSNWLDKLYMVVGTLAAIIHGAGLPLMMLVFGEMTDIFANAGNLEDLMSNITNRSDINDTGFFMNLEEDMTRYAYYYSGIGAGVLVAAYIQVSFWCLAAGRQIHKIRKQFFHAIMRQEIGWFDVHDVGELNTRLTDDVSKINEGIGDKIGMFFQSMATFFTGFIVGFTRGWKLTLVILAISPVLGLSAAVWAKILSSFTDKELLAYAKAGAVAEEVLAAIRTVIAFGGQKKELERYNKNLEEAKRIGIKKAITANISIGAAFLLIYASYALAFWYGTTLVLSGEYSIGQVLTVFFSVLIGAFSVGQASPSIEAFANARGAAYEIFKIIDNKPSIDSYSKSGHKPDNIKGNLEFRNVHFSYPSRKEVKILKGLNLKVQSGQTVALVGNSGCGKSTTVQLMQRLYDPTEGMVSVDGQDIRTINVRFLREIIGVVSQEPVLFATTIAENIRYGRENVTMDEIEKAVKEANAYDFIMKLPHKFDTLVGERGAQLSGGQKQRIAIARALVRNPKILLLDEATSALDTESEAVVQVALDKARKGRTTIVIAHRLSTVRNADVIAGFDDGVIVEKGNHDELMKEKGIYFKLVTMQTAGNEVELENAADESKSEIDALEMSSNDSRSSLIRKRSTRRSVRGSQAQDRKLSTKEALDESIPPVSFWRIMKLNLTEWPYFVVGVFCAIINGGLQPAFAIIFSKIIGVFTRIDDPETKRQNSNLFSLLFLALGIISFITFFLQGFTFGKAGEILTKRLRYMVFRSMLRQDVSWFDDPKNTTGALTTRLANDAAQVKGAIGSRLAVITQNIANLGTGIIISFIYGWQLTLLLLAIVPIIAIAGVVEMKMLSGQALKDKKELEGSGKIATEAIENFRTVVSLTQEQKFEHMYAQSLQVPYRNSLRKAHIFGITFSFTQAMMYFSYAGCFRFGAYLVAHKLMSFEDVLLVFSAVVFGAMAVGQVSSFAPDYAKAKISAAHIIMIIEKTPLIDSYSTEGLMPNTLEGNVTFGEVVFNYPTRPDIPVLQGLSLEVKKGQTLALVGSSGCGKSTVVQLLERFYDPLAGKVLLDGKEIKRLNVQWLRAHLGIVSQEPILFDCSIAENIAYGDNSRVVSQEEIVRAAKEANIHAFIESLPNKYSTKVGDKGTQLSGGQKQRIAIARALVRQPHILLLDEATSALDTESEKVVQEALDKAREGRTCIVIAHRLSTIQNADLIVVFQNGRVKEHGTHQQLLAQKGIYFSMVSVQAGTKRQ

Row | Compound | Activity
1 | CC/C(=C(\c1ccccc1)c1ccc(OCCN)cc1)c1ccccc1 [DESMETHYL TAMOXIFEN] | is not a substrate [-]
2 | CCC(=C(c1ccc(O)cc1)c1ccc(OCCN(C)C)cc1)c1ccccc1 | is not a substrate [-]
